Data published in US11185100B2 (priority 2014, dated 2021).
Read-outs that look alike come from different tables or passages of the source.

Experiments:
[1] = target: T1R1/T1R3 receptor (Felis catus, UniProt E3UMS2); test: Activation of T1R1/T1R3 receptor by transmembrane compounds alone or with alanine, IMP, GMP, phenylalanine; HEK293 cells, calcium fluorescence (Example 5); assay type: cell-based, cat; conditions: for Max resp % of Ala +IMP (0.2 mM): relative to Ala; for Thres +IMP (0.2 mM) / Thres +Alanine (20 mM): threshold concentration; for Activity: Table 18, all transmembrane compounds tested, active / N/A (not active); for Max resp % of IMP +Alanine (20 mM): relative to IMP
From the text: (§1) Methods: HEK293 cells that stably express T1R3 and inducibly express T1R1 were exposed to transmembrane compounds alone or in combination with one or more amino acids and/or one or more nucleotides to activate the umami receptor. Activation of the T1R1/T1R3 receptor was detected by a change in intracellular calcium levels using a calcium sensitive fluorescent dye. Cells that express T1R3 but not T1R1 were used as a control. A FLIPR® Tetra or a FlexStation® 3 was used for data capture.
In each experiment, serial dilutions of up to 10 mM of the transmembrane compound were added to the T1R1/T1R3-expressing cells.

[2] = target: cat T1R1/T1R3 receptor (Felis catus, UniProt E3UMS2); test: cell-based; assay type: cell-based
From the text: as §1, with “nucleotide derivatives” for “transmembrane compounds”, “dye and/or a luminescent reporter system.” for “dye.”

Structure (SMILES) | +IMP (0.2 mM) Max resp % of Ala [1] | Max resp ΔF/F +IMP (0.2 mM) [1] | Max resp % of Ala +IMP (0.2 mM) [1] [%] | Thres +IMP (0.2 mM) [1] [mM] | Activity [1] | activation of T1R1/T1R3 by the transmembrane compound alone (in words) ([1]; compound alone) | +Alanine (20 mM) Max resp % of IMP ([1]; +Alanine (20 mM)) | +Alanine (20 mM) Max resp ΔF/F ([1]; +Alanine (20 mM)) | +Alanine (20 mM) Thres ([1]; +Alanine (20 mM)) [mM] | Max resp % of IMP +Alanine (20 mM) ([1]; +Alanine (20 mM)) [%] | Thres +Alanine (20 mM) ([1]; +Alanine (20 mM)) [mM] | EC50 ([1]; compound alone in buffer, read-out: EC50 +buffer (alone)) [µM] | EC50 ([1]; read-out: +Alanine (20 mM) + IMP (0.2 mM) EC50, +Alanine (20 mM) + IMP (0.2 mM)) [µM] | EC50 ([1]; read-out: EC50 +Alanine (20 mM) + IMP (0.2 mM), +Alanine (20 mM) + IMP (0.2 mM)) [µM] | EC50 ([1]; read-out: EC50 +Alanine (20 mM), +Alanine (20 mM)) [µM] | Activity [2] | Max resp. (ΔF/F) [2] | Threshold [2] [mM] | Max. resp. % of IMP ([2]; hek293 cells) | EC50 ([2]; in the presence of 20 mM alanine, read-out: EC50- with Ala) [µM]
CCCC(CCC)C(=O)Nc1ccc2c(c1)OCO2 [N-(benzo[d][1,3]dioxol-5-yl)-2-propylpentanamide] | 108.0 % of Ala | 0.908 ΔF/F | 108.0 | 0.0675 | active | function as an agonist |  |  |  |  |  |  |  |  |  |  |  |  |  | 
O=C(Nc1ccccc1Br)N[C@@H]1c2ccccc2C[C@@H]1O (stereo in doubt) [1-(2-bromophenyl)-3-((1R,2S)-2-hydroxy-2,3-dihydro-1H-inden-1-yl)urea] | 44.9 % of Ala | 0.378 ΔF/F | 44.9 | 3 | active |  | 33.0 % of IMP | 0.3 ΔF/F | 3 | 33.0 | 3 |  |  |  |  |  |  |  |  | 
CCC(CC)NC(=O)c1ccc(Br)o1 [5-bromo-N-(pentan-3-yl)furan-2-carboxamide] | 149.6 % of Ala | 1.8425 ΔF/F | 149.6 | 0.3 | active |  | 126.8 % of IMP | 1.575 ΔF/F | 1 | 126.8 | 1 |  |  |  |  |  |  |  |  | 
CCC(CC)NC(=O)/C=C/c1ccc(OC)cc1 [(E)-3-(4-methoxyphenyl)-N-(pentan-3-yl)acrylamide] | 171.7 % of Ala | 1.443 ΔF/F | 171.7 | 0.0375 | active |  | 64.1 % of IMP | 0.7 ΔF/F | 0.148 | 64.1 | 0.148 |  |  |  |  |  |  |  |  | 
O=C(NCCc1ccccc1)C(=O)NCc1cccnc1 [N1-phenethyl-N2-(pyridin-3-ylmethyl)oxalamide; N-(2-phenylethyl)-N′-(pyridin-3-ylmethyl)ethanediamide] | 61.9 % of Ala |  |  |  |  |  | 30.2 % of IMP | 0.3750 ΔF/F | 1 |  |  |  |  |  |  |  |  |  |  | 
CC1CCCC(NC(=O)c2ccc3c(c2)OCO3)C1C (stereo not shown) [N-(2,3-dimethylcyclohexyl) benzo[d][1,3]dioxole-5-carboxamide] | 95.4 % of Ala | 1.175 ΔF/F | 95.4 | 0.275 | active |  | 18.1 % of IMP | 0.225 ΔF/F | 3 | 18.1 | 3 |  |  |  |  |  |  |  |  | 
CCCC(C)NC(=O)/C=C/c1ccc(OC)c(OC)c1 (stereo not shown) [(E)-3-(3,4-dimethoxyphenyl)-N-(pentan-2-yl)acrylamide; (2E)-3-(3,4-dimethoxyphenyl)-N-(pentan-2-yl)prop-2-enamide] | 86.9 % of Ala |  |  |  |  |  | 35.2 % of IMP | 0.4375 ΔF/F | 1 |  |  |  |  |  |  |  |  |  |  | 
COC(=O)C(NC(=O)/C=C/c1cccs1)C(C)C (stereo not shown) [(E)-methyl 3-methyl-2-(3-(thiophen-2-yl)acrylamido)butanoate] | 59.9 % of Ala | 0.7375 ΔF/F | 59.9 | 1 | active |  | 9.5 % of IMP | 0.1175 ΔF/F | 10 | 9.5 | 10 |  |  |  |  |  |  |  |  | 
CCC(CC)NC(=O)c1ccc(C)c(C)c1 [3,4-dimethyl-N-(pentan-3-yl)benzamide; N-(1-ethylpropyl)-3,4-dimethylbenzamide] | 125.7 % of Ala |  |  |  |  |  | 97.8 % of IMP | 1.2150 ΔF/F | 3 |  |  |  |  |  |  |  |  |  |  | 
CSc1ccc(-c2nnn(Cc3ccccn3)n2)cc1 [2-((5-(4-(methylthio)phenyl)-2H-tetrazol-2-yl)methyl)pyridine] | 80.7 % of Ala | 0.678 ΔF/F | 80.7 | 0.1575 | active |  |  |  |  |  |  |  |  |  |  |  |  |  |  | 
CCC(CC)NC(=O)c1ccc(OC)c(OC)c1 [3,4-dimethoxy-N-(pentan-3-yl)benzamide] | 81.0 % of Ala | 0.9975 ΔF/F | 81.0 | 0.5 | active |  | 43.9 % of IMP | 0.545 ΔF/F | 0.3 | 43.9 | 0.3 |  |  |  |  |  |  |  |  | 
O=C(CN1C(=O)C(=O)N(Cc2ccccc2)C1=O)c1ccccc1 [1-benzyl-3-(2-oxo-2-phenylethyl)imidazolidine-2,4,5-trione] | 135.7 % of Ala | 1.140 ΔF/F | 135.7 | 0.08 | active |  | 127.6 % of IMP | 1.3 ΔF/F | 1 | 127.6 | 1 | > 1000 | 330 ± 40 | 330 | > 1000 |  |  |  |  | 
CCC(CC)NC(=O)c1ccc(C)c(C)c1 [3,4-dimethyl-N-(pentan-3-yl)benzamide] |  | 1.5475 ΔF/F | 125.7 | 0.525 | active |  |  |  |  | 97.8 | 3 |  |  |  |  |  |  |  |  | 
CCOC(=O)C(NC(=O)c1ccc2c(c1)OCO2)C(C)C (stereo not shown) [ethyl 2-(benzo[d][1,3]dioxole-5-carboxamido)-3-methylbutanoate] | 52.8 % of Ala | 0.65 ΔF/F | 52.8 | 1 | active |  | 25.6 % of IMP | 0.3175 ΔF/F | 10 | 25.6 | 10 |  |  |  |  |  |  |  |  | 
O=P(O)(O)OC[C@H]1O[C@@H](n2cnc3c(NC4CCCC4)ncnc32)[C@H](O)[C@@H]1O [N6-Cyclopentyladenosine-5′-O-monophosphate] |  |  |  |  |  |  |  |  |  |  |  |  |  |  |  | active | 1.2317 ΔF/F | 0.013 | 127.2 % of IMP | 50
